Data: patent US6613897B1, “Compounds having glucuronic acid derivatives and glucosamine derivative in the structure, process for producing the same and utilization thereof” (Maruha Corporation, priority 1998, dated 2003)
Like-named read-outs stand apart in the source and are kept apart here.

Key:
[1] = system: bovine aortic vascular endothelial cells; test: Vascular endothelial cell growth promoting action (BrdU uptake); format: cell-based; settings: 20 hours
Experimental: This test used bovine aortic vascular endothelial cells (passage number 3) as cells, and MEM containing 10% FCS (fetal calf serum), 100 units/mL penicillin G, and 100 μg/mL streptomycin as a culture medium. […] Culture was performed for 20 hours at 37° C. and 5% CO2, and then the effect of the compounds on vascular endothelial cell growth was measured using “Cell Growth ELISA, BrdU Color Development Kit” (Boehringer Mannheim) (uptake of 5-bromodeoxyuridine (BrdU) was adopted as an indicator).

[2] = system: bovine aortic vascular endothelial cells
Experimental: A test was conducted to investigate the interaction of the compounds of the invention with vascular endothelial growth factor (VEGF). As the VEGF, human recombinant VEGF was used (Vascular Endothelial Growth Factor, Human, Recombinant, For Biochemical Use: a product of Wako Pure Chemical Industries).
The test was conducted in the same manner as in Example 12, but VEGF (final concentration 10 ng/mL) was added simultaneously with the addition of the compound. As comparative tests, a VEGF single addition test (a test in which only VEGF was added) and a negative control test (a test in which neither the compound nor VEGF was added) were performed. The effect on vascular endothelial cell growth was measured in the same way as in Example 12.
The vascular endothelial cell growth promoting action of each of the compounds was evaluated from the following equation:
Promoting rate (%)={(Increase in the BrdU uptake in the compound addition test)/(Increase in the BrdU uptake in the negative control test)}×100

[3] = system: rabbit platelet rich plasma; settings: read-out: 50% Inhibitory Concentration; collagen-induced platelet aggregation, rabbit PRP
Experimental: Blood was taken from the rabbit aorta in an amount of 9 volumes of the blood per volume of a 3.8% aqueous solution of sodium citrate. The blood sample was immediately centrifuged (50×g, 10 min, room temperature) to obtain platelet rich plasma (PRP) as a supernatant. […] The mixture was held for 1 minute at 37° C., and then 10 μL of 10 μg/mL collagen (bovine tendon collagen: a product of Meiji Yakuhin) was added as an aggregation inducer. An aggregation curve was recorded for 7 minutes after addition.

[4] = compound concentration 0.1 μg/mL
[5] = compound concentration 0.5 μg/mL
[6] = compound concentration 10 μg/mL
[7] = compound concentration 0.1 μg/mL + VEGF 10 ng/mL
[8] = compound concentration 0.5 μg/mL + VEGF 10 ng/mL
[9] = compound concentration 1 μg/mL + VEGF 10 ng/mL
[10] = compound concentration 5 μg/mL + VEGF 10 ng/mL
[11] = compound concentration 10 μg/mL + VEGF 10 ng/mL

| Substance | Promoting rate [1, 4] [%] | Promoting rate [1, 5] [%] | Promoting rate ([1]; compound concentration 1 μg/mL) [%] | Promoting rate ([1]; compound concentration 5 μg/mL) [%] | Promoting rate [1, 6] [%] | Promoting rate [2, 7] [%] | Promoting rate [2, 8] [%] | Promoting rate [2, 9] [%] | Promoting rate [2, 10] [%] | Promoting rate [2, 11] [%] | IC50 [3] [nM] | Promoting rate ([2]; VEGF added alone, 10 ng/mL (compound concentration 0)) [%] |
| --- | --- | --- | --- | --- | --- | --- | --- | --- | --- | --- | --- | --- |
| 4-deoxy-α-L-threo-hexa-4-enepyranuronosyl-(1→3)-O-2-acetamide-2-deoxy-β-D-glucopyranosyl-(1→4)-3-O-β-D-glucopyranuronic acid [Compound Example 7] | 104.8 | 139.7 | 172.6 | 170.0 | 129.7 | 165.0 | 206.2 | 235.9 | 228.7 | 191.3 |  |  |
| 4-deoxy-α-L-threo-hexa-4-enepyranuronosyl-(1→3)-O-2-acetamide-2-deoxy-β-D-glucopyranosyl-(1→4)-3-O-β-D-glucopyranuronitol [Compound Example 9] | 102.8 | 139.5 | 180.3 | 179.3 | 133.4 | 159.8 | 200.2 | 245.6 | 244.2 | 196.8 |  |  |
| 4-deoxy-α-L-threo-hexa-4-enepyranuronosyl-(1→3)-O-2-acetamide-2-deoxy-β-D-glucopyranosyl-(1→4)-3-O-β-D-glucopyranuronosyl-(1→3)-O-2-acetamide-2-deoxy-β-D-glucopyranitol [Compound Example 5] | 101.1 | 144.2 | 182.7 | 169.9 | 141.1 | 160.9 | 205.0 | 243.8 | 231.1 | 200.4 |  |  |
| 4-deoxy-α-L-threo-hexa-4-enepyranuronosyl-(1→3)-O-2-acetamide-2-deoxy-β-D-glucopyranosyl-(1→4)-3-O-β-D-glucopyranuronosyl-(1→3)-O-2-acetamide-2-deoxy-β-D-glucopyranose [Compound Example 1] |  |  |  |  |  |  |  |  |  |  | 2700 |  |
| 4-deoxy-α-L-threo-hexa-4-enepyranuronosyl-(1→3)-O-2-acetamide-2-deoxy-β-D-glucopyranosyl-(1→4)-3-O-β-D-glucopyranuronosyl-(1→3)-O-2-acetamide-2-deoxy-β-D-glucopyranosyl-(1→4)-3-O-β-D-glucopyranuronic acid [Compound Example 8] | 103.3 | 140.9 | 181.1 | 168.7 | 141.3 | 168.7 | 202.9 | 251.2 | 224.9 | 199.2 | 3.8 |  |
| 4-deoxy-α-L-threo-hexa-4-enepyranuronosyl-(1→3)-O-2-acetamide-2-deoxy-β-D-glucopyranosyl-(1→4)-3-O-β-D-glucopyranuronosyl-(1→3)-O-2-acetamide-2-deoxy-β-D-glucopyranosyl-(1→4)-3-O-β-D-glucopyranuronosyl-(1→3)-O-2-acetamide-2-deoxy-β-D-glucopyranitol [Compound Example 6] | 100.5 | 143.8 | 167.9 | 168.8 | 142.2 | 159.8 | 205.2 | 232.2 | 224.8 | 205.7 | 2.7 |  |
| 4-deoxy-α-L-threo-hexa-4-enepyranuronosyl-(1→3)-O-2-acetamide-2-deoxy-β-D-glucopyranosyl-(1→4)-3-O-β-D-glucopyranuronosyl-(1→3)-O-2-acetamide-2-deoxy-β-D-glucopyranosyl-(1→4)-3-O-β-D-glucopyranuronosyl-(1→3)-O-2-acetamide-2-deoxy-β-D-glucopyranose [Compound Example 2] |  |  |  |  |  |  |  |  |  |  | 3.2 |  |
| VEGF |  |  |  |  |  |  |  |  |  |  |  | 148.5 |
